# Results from ChEMBL document CHEMBL1201862, “PubChem BioAssay data set” (2004).
# Activity calls are given as the source filed them.
# Assays:
# [1] = target: T1, Neuropeptide Y receptor type 2 (Homo sapiens, UniProt P49146); assay: Fluorescence-based cell-based high-throughput dose response assay for agonists of NPY-Y2. [Related pubchem assays: 1703 (Screening assay (CNGC inhibitors).), 1359 (Screening assay (NPY-Y2 potentiators or agonists).), 1304 (Screening assay (NPY-Y1 potentiators or agonists).), 1710 (Screening assay (NPY-Y2 agonists).), 1791 (Summary AID.)]; assay type: functional
# T1 sequence (P49146 whole entry): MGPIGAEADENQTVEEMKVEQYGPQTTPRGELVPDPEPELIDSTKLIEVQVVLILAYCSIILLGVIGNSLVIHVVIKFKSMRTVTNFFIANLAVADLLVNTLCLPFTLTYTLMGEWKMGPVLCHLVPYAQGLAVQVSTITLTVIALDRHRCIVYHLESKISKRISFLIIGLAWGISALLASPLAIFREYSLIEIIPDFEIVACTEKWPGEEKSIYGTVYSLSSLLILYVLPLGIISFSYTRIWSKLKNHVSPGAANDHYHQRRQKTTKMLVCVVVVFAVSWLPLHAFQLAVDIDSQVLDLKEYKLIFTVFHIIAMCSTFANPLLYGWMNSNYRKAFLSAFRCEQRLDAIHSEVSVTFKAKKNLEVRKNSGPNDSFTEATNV
# HEK293 = assay: Fluorescence-based counterscreen for potentiators or agonists of NPY-Y2: cell-based high-throughput dose response assay to identify inhibitors of cyclic nucleotide gated ion channel (CNGC) activity. In this assay, the parental HEK293 cell line transfected with a cyclic-nucleotide gated ion channel (CNGC)-based cAMP sensor is used to measure inhibition of isoproterenol-induced CNGC activity by test compound.; assay type: functional; details: Homo sapiens;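 note: stimulus is 1 µM isoproterenol at EC100 plus PDE inhibitor Ro 20-1724 at 25 µM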
# [2] = target: T2, Neuropeptide Y receptor type 1 (Homo sapiens, UniProt P25929); assay: Fluorescence-based counterscreen for agonists of NPY-Y2: cell-based high-throughput dose response assay for agonists of NPY-Y1.; assay type: functional
# T2 sequence (P25929 whole entry): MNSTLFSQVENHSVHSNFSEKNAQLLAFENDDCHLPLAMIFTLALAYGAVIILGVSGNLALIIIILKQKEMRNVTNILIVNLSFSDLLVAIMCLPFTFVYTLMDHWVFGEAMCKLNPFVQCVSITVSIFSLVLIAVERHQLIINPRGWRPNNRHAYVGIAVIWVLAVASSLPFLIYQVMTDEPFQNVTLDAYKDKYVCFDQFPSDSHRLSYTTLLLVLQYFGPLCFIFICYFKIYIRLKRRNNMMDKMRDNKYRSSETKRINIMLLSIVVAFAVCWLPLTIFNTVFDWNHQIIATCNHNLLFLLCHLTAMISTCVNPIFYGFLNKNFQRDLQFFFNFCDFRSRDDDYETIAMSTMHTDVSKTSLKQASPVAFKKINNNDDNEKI
# [3] = target: T3, DNA dC->dU-editing enzyme APOBEC-3A (Homo sapiens, UniProt P31941); assay: Dose Response confirmation of small molecule APOBEC3A DNA Deaminase Inhibitors via a fluorescence-based single-stranded DNA deaminase assay. [Related pubchem assays (depositor defined):AID493011, AID493024]; assay type: functional
# T3 sequence (P31941 whole entry): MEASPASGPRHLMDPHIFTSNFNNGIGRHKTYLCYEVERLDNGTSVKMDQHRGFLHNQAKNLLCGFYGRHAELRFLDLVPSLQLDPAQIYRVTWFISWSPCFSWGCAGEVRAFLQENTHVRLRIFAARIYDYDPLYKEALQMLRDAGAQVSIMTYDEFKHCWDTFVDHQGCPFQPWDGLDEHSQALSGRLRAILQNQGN
# [4] = target: T4, DNA dC->dU-editing enzyme APOBEC-3G (Homo sapiens, UniProt Q9HC16); assay type: functional
# T4 sequence (Q9HC16 whole entry): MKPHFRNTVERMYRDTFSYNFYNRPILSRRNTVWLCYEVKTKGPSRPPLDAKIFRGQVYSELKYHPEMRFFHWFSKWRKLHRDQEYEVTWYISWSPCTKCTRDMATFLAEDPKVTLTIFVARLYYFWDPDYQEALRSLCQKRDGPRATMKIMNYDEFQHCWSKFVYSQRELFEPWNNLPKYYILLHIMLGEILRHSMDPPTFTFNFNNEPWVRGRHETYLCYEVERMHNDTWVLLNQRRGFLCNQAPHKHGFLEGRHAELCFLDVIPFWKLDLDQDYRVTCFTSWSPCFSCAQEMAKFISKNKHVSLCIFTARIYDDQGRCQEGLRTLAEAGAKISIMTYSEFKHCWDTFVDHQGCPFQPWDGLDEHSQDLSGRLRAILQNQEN
# Leucine aminopeptidase = target: T5, Leucine aminopeptidase (Plasmodium falciparum 3D7, UniProt Q8IL11); assay: P. falciparum M17LAP inhibitors, primary screen, biochemical, fluorogenic H-Leu-NHMec substrate, 1536-well (AID 1619); assay type: functional
# T5 sequence (Q8IL11 whole entry): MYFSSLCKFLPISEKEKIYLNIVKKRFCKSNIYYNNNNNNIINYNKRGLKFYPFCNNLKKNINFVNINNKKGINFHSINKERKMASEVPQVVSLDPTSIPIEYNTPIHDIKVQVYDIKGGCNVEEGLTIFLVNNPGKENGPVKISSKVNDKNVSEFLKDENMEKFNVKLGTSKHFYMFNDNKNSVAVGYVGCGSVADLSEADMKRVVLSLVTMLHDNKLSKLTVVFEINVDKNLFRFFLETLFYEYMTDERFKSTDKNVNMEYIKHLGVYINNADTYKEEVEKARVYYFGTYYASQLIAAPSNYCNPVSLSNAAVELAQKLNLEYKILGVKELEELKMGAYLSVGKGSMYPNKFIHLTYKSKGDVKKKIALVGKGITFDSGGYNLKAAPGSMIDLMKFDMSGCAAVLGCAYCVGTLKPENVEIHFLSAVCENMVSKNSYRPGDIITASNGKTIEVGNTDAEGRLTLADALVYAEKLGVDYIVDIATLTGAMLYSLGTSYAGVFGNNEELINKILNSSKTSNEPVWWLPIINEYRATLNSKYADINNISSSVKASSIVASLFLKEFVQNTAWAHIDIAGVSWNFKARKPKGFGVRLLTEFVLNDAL
# Aspartyl aminopeptidase = target: T6, Aspartyl aminopeptidase (Plasmodium falciparum 3D7, UniProt Q8I2J3); assay: Counterscreen for inhibitors of M1 and M17 aminopeptidases: QFRET-based biochemical high throughput dose response assay for inhibitors of the Plasmodium falciparum M18 Aspartyl Aminopeptidase (PFM18AAP). [Related PubChem assays: 1619 (Screening assay (M17LAP inhibitors).), 1445 (Screening assay (M1AAP inhibitors).)]
# T6 sequence (Q8I2J3 whole entry): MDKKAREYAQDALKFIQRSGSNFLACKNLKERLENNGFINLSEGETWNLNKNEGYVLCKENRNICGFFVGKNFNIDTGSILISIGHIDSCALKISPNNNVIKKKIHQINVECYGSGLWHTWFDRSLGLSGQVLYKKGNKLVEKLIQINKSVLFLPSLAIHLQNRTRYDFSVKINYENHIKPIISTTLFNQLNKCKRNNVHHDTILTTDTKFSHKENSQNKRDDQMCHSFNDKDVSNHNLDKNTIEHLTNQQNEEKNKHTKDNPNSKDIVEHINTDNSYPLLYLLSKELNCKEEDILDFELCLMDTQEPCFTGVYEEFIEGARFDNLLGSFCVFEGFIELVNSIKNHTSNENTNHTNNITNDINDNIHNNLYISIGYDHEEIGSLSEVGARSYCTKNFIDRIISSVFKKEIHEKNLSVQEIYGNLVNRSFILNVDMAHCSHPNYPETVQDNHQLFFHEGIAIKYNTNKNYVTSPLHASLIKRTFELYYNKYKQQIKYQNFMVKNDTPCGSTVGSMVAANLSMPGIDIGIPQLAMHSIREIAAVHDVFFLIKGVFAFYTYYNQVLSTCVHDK
# Procathepsin L = Procathepsin L (Homo sapiens, UniProt P07711); assay: cathepsin L inhibitors, dose response, counter-screen for M1/M17 aminopeptidase inhibitor project, biochemical, QFRET, 1536-well (AID 2214)
# Procathepsin L, sequence (P07711 whole entry): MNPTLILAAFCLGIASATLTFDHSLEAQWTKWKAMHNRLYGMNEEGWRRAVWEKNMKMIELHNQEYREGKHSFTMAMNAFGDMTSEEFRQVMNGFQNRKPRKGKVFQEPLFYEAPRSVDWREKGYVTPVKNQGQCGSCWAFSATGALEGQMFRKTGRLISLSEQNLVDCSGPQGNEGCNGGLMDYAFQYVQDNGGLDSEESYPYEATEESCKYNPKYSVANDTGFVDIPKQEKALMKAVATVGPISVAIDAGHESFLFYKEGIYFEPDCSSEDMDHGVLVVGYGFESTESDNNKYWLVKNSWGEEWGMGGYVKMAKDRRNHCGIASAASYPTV
# CAAX prenyl protease 2 = CAAX prenyl protease 2 (Saccharomyces cerevisiae S288c, UniProt Q03530); assay type: biochemical
# CAAX prenyl protease 2, sequence (Q03530 whole entry): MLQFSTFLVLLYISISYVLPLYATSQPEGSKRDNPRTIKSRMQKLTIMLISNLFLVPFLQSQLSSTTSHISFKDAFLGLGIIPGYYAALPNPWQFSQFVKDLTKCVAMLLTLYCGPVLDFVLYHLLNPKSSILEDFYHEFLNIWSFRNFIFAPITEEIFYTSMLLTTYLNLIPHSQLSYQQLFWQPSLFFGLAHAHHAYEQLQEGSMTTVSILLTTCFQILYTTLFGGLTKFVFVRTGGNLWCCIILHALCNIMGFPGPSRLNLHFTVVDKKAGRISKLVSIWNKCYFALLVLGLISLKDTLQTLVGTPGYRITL
# cells [5] = assay: cells
# [6] = HEp-2 cell cytotoxicity, dose response, cytotoxicity control for RSV inhibitor project, HTS (AID 2410); assay type: functional; details: human respiratory syncytial virus
# [7] = cytotoxicity in KRAS-transformed pancreatic duct cells, primary screen, cell-based, fluorescence, HTS (AID 431); assay type: functional; details: Homo sapiens;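 note: cell line used: HPDE-C7K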
# [8] = cytotoxicity in HPDE-C7 cells, cell-based, fluorescence, HTS (AID 430); assay type: functional; details: Homo sapiens
# Bcl-2-related protein A1 [9] = target: T7, Bcl-2-related protein A1 (Mus musculus, UniProt Q07440); assay: Bfl-1 inhibitors blocking BH3 peptide binding, confirmation, biochemical, TR-FRET, mouse Bfl-1 (AID 621);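 note: TR-FRET binding of GST-Bfl-1 to FITC-labelled Bid peptide via terbium antibody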
# T7 sequence (Q07440 whole entry): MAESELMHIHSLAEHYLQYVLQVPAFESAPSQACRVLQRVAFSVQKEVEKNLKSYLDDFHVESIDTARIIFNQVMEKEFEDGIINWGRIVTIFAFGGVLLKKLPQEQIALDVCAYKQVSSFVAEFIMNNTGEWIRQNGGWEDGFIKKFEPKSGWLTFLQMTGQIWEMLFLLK
# HeLa = assay: HeLa cell cytotoxicity, dose response, cytotoxicity control for MITF activator project, CellTiter-Glo luminescence, cherry-pick samples (AID 540259); assay type: functional, cell-based; details: Homo sapiens
# Bcl-2-related protein A1 [10] = target: T7, Bcl-2-related protein A1; assay: Bfl-1 binding inhibitors, SAR follow-up, biochemical, fluorescence polarization (AID 1070)
# [11] = target: Peroxisome proliferator-activated receptor gamma/Nuclear receptor coactivator 1 (Homo sapiens, UniProt P37231); assay: (§1) TR-FRET dose response biochemical High Throughput Screening assay for agonists of the steroid receptor coactivator 1 (SRC-1) recruitment by the peroxisome proliferator-activated receptor gamma (PPAR gamma): non-selective agonists. [Related pubchem assays (depositor defined):AID1300, AID1808, AID504735, AID631]; assay type: protein assay
# [12] = target: Peroxisome proliferator-activated receptor gamma/Nuclear receptor coactivator 3 (Homo sapiens, UniProt P37231); assay: as §1, with “3 (SRC-3)” for “1 (SRC-1)”, “assays: 1301 (Confirmation screen.), 1048 (Primary screen.)]” for “assays (depositor defined):AID1300, AID1808, AID504735, AID631]”; assay type: functional
# Peroxisome proliferator-activated receptor gamma/Nuclear receptor coactivator 3, sequence (P37231 whole entry): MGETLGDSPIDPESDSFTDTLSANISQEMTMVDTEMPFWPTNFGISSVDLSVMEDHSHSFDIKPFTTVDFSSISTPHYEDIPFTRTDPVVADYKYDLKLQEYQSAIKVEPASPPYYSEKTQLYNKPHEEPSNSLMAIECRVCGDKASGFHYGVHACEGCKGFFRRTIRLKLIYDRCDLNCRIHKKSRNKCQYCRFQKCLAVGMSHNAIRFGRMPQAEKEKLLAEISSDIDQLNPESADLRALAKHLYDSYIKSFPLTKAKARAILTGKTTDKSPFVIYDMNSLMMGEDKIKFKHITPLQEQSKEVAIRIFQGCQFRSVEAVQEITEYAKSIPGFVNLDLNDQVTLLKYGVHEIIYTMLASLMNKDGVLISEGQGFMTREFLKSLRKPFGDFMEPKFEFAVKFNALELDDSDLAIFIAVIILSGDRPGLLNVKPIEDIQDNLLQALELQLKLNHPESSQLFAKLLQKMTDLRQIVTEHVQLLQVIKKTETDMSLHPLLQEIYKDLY
# Peroxisome proliferator-activated receptor gamma/Nuclear receptor coactivator 3, sequence (Q9Y6Q9 whole entry, further chain): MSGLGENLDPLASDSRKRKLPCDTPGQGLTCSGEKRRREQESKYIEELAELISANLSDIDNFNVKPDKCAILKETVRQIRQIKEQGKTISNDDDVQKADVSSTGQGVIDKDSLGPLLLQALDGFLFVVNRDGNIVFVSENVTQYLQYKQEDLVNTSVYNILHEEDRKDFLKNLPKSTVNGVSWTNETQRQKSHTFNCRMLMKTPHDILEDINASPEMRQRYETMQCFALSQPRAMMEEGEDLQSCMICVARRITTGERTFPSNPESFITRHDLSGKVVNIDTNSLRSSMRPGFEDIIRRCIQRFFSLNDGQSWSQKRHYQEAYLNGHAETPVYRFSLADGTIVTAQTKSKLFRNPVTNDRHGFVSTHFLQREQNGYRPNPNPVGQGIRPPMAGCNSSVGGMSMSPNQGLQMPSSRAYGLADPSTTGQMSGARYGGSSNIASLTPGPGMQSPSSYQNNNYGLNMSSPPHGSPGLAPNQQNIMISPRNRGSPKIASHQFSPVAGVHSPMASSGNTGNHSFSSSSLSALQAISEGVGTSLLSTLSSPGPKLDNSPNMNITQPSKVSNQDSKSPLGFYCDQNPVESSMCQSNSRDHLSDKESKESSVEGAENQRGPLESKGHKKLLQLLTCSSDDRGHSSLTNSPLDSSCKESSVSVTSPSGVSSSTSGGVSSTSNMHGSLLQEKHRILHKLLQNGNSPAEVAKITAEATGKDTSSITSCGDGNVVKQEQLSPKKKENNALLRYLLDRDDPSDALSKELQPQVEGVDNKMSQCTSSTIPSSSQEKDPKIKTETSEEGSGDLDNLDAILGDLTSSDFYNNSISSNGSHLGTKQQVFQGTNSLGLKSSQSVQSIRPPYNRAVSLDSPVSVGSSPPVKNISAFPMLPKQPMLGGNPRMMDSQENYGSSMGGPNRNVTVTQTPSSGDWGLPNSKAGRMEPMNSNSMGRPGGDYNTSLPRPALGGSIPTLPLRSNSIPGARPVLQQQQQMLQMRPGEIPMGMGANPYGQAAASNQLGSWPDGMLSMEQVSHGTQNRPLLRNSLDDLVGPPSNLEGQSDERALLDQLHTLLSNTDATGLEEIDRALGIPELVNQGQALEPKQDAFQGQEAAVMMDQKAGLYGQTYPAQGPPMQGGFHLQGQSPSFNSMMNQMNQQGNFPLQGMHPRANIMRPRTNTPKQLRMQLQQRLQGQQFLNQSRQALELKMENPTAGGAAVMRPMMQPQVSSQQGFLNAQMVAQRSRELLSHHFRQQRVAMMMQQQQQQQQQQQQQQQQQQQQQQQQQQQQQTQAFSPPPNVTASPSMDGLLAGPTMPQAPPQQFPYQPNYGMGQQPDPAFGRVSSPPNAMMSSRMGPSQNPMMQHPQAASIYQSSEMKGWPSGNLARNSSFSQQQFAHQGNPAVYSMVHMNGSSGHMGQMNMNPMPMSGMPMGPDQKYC
# [13] = target: T3, DNA dC->dU-editing enzyme APOBEC-3A; assay: APOBEC3A DNA deaminase inhibitors, dose response, biochemical (AID 504722); assay type: functional
# [14] = target: T4, DNA dC->dU-editing enzyme APOBEC-3G; assay: Dose Response confirmation of small molecule APOBEC3G DNA Deaminase Inhibitors via a fluorescence-based single-stranded DNA deaminase assay. [Related pubchem assays (depositor defined):AID493012, AID493028]; assay type: functional
# [15] = target: Peroxisome proliferator-activated receptor gamma/Nuclear receptor coactivator 2 (Homo sapiens, UniProt P37231); assay: TR-FRET dose response biochemical High Throughput Screening assay for agonists of the steroid receptor coactivator 2 (SRC-2) recruitment by the peroxisome proliferator-activated receptor gamma (PPAR gamma): non-selective agonists. [Related pubchem assays: 1297, 1032 ]; assay type: functional
# [16] = target: FAD-linked sulfhydryl oxidase ALR (Homo sapiens, UniProt P55789); assay: inhibitors of human ALR sulfhydryl oxidase, dose response, biochemical, H2O2 detection, luminescence, cherry-pick (AID 493248)
# FAD-linked sulfhydryl oxidase ALR, sequence (P55789 whole entry): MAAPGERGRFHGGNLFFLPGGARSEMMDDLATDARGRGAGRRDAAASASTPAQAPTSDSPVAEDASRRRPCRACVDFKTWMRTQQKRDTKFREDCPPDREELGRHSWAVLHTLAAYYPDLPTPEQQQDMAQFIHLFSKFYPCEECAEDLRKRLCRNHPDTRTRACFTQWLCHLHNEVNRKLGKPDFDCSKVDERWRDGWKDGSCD
# [17] = target: T8, Ubiquitin-conjugating enzyme E2 N (Homo sapiens, UniProt P61088); assay type: functional;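 note: Dose-response confirmation in a TR-FRET assay detecting UBC13-driven polyubiquitin chain formation, inhibition measured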
# T8 sequence (P61088 whole entry): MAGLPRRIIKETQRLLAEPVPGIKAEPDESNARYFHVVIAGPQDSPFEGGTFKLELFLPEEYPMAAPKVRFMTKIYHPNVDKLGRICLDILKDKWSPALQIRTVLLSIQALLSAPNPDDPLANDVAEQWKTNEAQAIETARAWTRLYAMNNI
# [18] = target: Polyadenylate-binding protein 1 (Homo sapiens, UniProt P11940); assay: PABP poly(A) RNA binding inhibitors, primary screen, biochemical, fluorescence polarization, uHTS (AID 2014)
# Polyadenylate-binding protein 1, sequence (P11940 whole entry): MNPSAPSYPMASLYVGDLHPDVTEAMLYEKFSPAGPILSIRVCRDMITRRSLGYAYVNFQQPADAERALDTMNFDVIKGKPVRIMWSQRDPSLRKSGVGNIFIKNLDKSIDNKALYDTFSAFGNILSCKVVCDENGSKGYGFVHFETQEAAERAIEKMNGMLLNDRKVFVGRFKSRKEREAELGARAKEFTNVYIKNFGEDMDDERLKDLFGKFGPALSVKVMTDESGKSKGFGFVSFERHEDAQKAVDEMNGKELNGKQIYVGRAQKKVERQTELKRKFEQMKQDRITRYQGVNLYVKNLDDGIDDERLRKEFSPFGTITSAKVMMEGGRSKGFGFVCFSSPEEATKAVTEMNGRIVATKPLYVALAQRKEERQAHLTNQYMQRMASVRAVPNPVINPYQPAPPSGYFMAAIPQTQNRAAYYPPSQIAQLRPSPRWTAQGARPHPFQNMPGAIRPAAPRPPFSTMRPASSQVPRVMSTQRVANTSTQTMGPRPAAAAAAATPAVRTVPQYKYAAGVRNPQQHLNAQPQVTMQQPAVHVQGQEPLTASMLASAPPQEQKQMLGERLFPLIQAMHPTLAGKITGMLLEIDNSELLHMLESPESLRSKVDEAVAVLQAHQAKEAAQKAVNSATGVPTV
# [19] = target: Eukaryotic translation initiation factor 4H (Homo sapiens, UniProt Q15056); assay: human eIF4H binding inhibitors, primary screen, translation initiation inhibitor project, biochemical, uHTS, fluorescence polarization (AID 2012)
# [20] = A High Throughput Confirmatory Assay used to Identify Novel Compounds that Inhibit Mycobacterium Tuberculosis in the absence of Glycerol.; assay type: functional
# [21] = microbe, parasite or virus in culture; assay type: functional; details: Mycobacterium tuberculosis
# cells [22] = assay type: functional, cell-based
# cells [23] = assay type: functional, cell-based; remark: listed apart in the source
structure (smiles),measurement,setting,value
CCc1cc[n+](/C(C([S-])=Nc2cccc(C)c2)=C(/O)c2ccc(C)c([N+](=O)[O-])c2)cc1,EC50,[1],> 35.4 µM (not active)
same,EC50,HEK293,> 35.4 µM (not active)
same,EC50,[2],> 35.4 µM (not active)
CCn1c(C)cc(/C=C2\NC(=O)N(CC(=O)Nc3ccc(F)cc3)C2=O)c1C,IC50,[3],1.24 µM (active)
same,IC50,[4],2.2 µM (active)
Cc1cccc(NC(=O)CSc2nc(O)c(C#N)c(-c3ccccc3)n2)c1C,IC50,Leucine aminopeptidase,5.37 µM (active)
same,IC50,Aspartyl aminopeptidase,> 73.5 µM (not active)
same,IC50,Procathepsin L,> 59.6 µM (not active)
COc1cc2ccccc2cc1C(=O)N(CCN(C)C)c1nc2ccc(C)cc2s1,AC50,CAAX prenyl protease 2,11.3 µM (active)
Cc1cc(Nc2ccccc2Cl)nc(-c2ccccc2O)n1,IC50,cells [5],34.7 µM (active)
same,CC50,[6],38.5 µM (active)
CCc1c(C)nc(N)nc1OCC(F)(F)C(F)F,EC50,[7],> 20 µM (not active)
same,EC50,[8],> 20 µM (not active)
Nc1c(Cl)cc(C2=NCCn3nc4cc(C(F)(F)F)ccc4c32)cc1Cl,AC50,CAAX prenyl protease 2,5.28 µM (active)
c1ccc(-n2nnc(-c3cccnc3)n2)cc1,IC50,Bcl-2-related protein A1 [9],> 100 µM (not active)
same,AC50,HeLa,213 µM (active)
same,IC50,Bcl-2-related protein A1 [10],> 100 µM (not active)
Cc1ccc(O)c(-c2cc(-c3ccccc3C)[nH]n2)c1,EC50,[7],8.16 µM (active)
same,EC50,[8],11 µM (active)
Cc1cccc(-n2c(S)nnc2-c2ccco2)c1,EC50,[11],> 79.4 µM (inactive)
same,EC50,[12],> 79.4 µM (not active)
same,IC50,[13],> 100 µM (inactive)
same,IC50,[14],6.36 µM (active)
same,EC50,[15],> 79.4 µM (not active)
same,AC50,[16],5.51 µM (active)
COc1ccc(S(=O)(=O)NCc2ccco2)cc1-c1nnc2c3ccccc3c(C)nn12,IC50,cells [5],11.2 µM (active)
Cc1ccc2c(c1)C1C[N+](C)(CC(=O)c3ccc(Cl)cc3Cl)CCC1N2C(=O)c1ccc(F)cc1 (configuration not stated),IC50,[17],> 20 µM (inactive)
same,IC50,[3],2.65 µM (active)
same,IC50,[4],2.88 µM (active)
Cc1ccc(-c2cccc(NC(=O)C3C4C=CC(C4)C3C(=O)O)c2)o1 (configuration not stated),IC50,Leucine aminopeptidase,3.86 µM (active)
same,IC50,Aspartyl aminopeptidase,> 73.5 µM (not active)
same,IC50,Procathepsin L,> 59.6 µM (not active)
CN(Cc1cccc(Cl)c1)C(=O)C1CSC2(C)CCC(=O)N12 (configuration not stated),IC50,[18],29.4 µM (active)
same,IC50,[19],> 100 µM (inactive)
Cc1sc2ncnc(N3CCC(C(=O)N(CC(C)C)c4nc5ccccc5s4)CC3)c2c1C,IC50,[20],> 100 µM (active)
same,CC50,[21],> 40 µM (active)
CCCCCNc1nc(N2CCCC2)c2c(c1C#N)CCN(C)C2,IC50,[20],> 100 µM (active)
same,CC50,[21],> 40 µM (active)
Sc1nnc(-c2ccco2)n1/N=C/c1cccs1,IC50,[13],> 100 µM (inactive)
same,EC50,cells [22],> 350 µM (not active)
same,EC50,cells [23],> 350 µM (not active)
same,IC50,[14],3.28 µM (active)
